What was measured:
Type in all cases: cell-based
CASP3 (caspase-3) = assay: Gene expression experiment (real-time PCR) in SH-SY5Y cells: CASP3; settings: for expression of CASP3: 24 h
Protocol: (§1) SH-SY5Y cells were seeded in 100 mm-cell dishes (BD Biocoat) at concentrations of 3.7×10^5 cells/mL (10 mL/dish) and cultured for 24 h at 37° C. and 5% CO2. Culture medium used was F12/DMEM (Gibco) supplemented with 1% non-essential amino acids (Gibco), 15% FBS (Bio West), and 1% penicillin/streptomycin (Lonza). After 24 h, the culture medium was completely removed with an aspirator, 10 mL of culture medium Opti-MEM(Gibco) was added to each dish, and the cells were cultured for 24 h at 37° C. and 5% CO2. RNA was extracted from the culture cells and analyzed for the expression of genes described below by real-time PCR (designated as “Control” in FIGS. 2 to 8).
(§2) RNA extraction was performed using ISOGEN Reagent (Nippon Gene Co., Ltd.) in accordance with the protocol recommended by Nippo n Gene Co., Ltd. (see URL: https://www.nippongene.com/siyaku/product/extraction/tds/tds_isogen-rna-dna-protein.pdf). Real-time PCR was performed according to the protocol recommended by Thermo Fisher Scientific using a reagent kit for TaqMan Real-Time PCR (Thermo Fisher Scientific) (see URL: https://assets.thermofisher.com/TFS-Assets/LSG/manuals/4304449_TaqManPCRMM_UG.pdf).
(§3) 24 h after seeding 100 mm-cell dishes (BD Biocoat) with SH-SY5Y cells, the culture medium was completely removed with an aspirator, amyloid β protein (Beta-Amyloid 1-42, AnaSpec) was mixed with Opti-MEM (Gibco) so that the final concentration was 5 μM, 10 mL of the mixture was added to each dish, the cells were cultured for 24 h at 37° C. and 5% CO2, and RNA was extracted. Except for performing the procedure described above, gene expression was analyzed as described above (designated as “Aβ” in FIGS. 2 to 8).
(§4) 24 h after seeding 100 mm-cell dishes (BD Biocoat) with SH-SY5Y cells, the culture medium was completely removed with an aspirator, Sample 1 was mixed with culture medium Opti-MEM(Gibco) so that the final concentration was 12.56 μM, 9,990 μL of the mixture was added to each dish and allowed to stand for 10 min, amyloid β protein (Beta-Amyloid 1-42, AnaSpec) was mixed with Opti-MEM (Gibco) so that the final concentration was […], 10 μL of the mixture was added to each well, the cells were cultured for 24 h at 37° C. and 5% CO2, and RNA was extracted. Except for performing the procedure described above, Gene expression was analyzed as described above (designated as “Aβ+M3,5G” in FIGS. 2 to 8).
(§5) Except that Sample 2 was used instead of Sample 1, gene expression was analyzed as described above (designated as “Aβ+M” in FIGS. 2 to 8).
(§6) Except that Sample 3 was used instead of Sample 1, gene expression was analyzed as described above (designated as “Aβ+M3G” in FIGS. 2 to 8).
(§7) 24 h after seeding 100 mm-cell dishes (BD Biocoat) with SH-SY5Y cells, the culture medium was completely removed with an aspirator, 10 mL of culture medium Opti-MEM(Gibco) mixed with Sample 1 was added to each dish, the cells were cultured for 24 h at 37° C. and 5% CO2, and RNA was extracted. Except for performing the procedure described above, gene expression was analyzed as described above (designated as “M3,5G” in FIGS. 2 to 8).

[1] = test system: PI3KCA (phosphatidylinositol-4,5-bisphosphate 3-kinase catalyst subunit α); assay: Gene expression experiment (real-time PCR) in SH-SY5Y cells: PI3KCA; settings: for expression of PI3KCA: 24 h
Protocol: as §1, §2, §3, §4, §5, §6, §7

[2] = test system: AKT1 (AKT serine/threonine kinase 1); assay: Gene expression experiment (real-time PCR) in SH-SY5Y cells: AKT1; settings: for expression of AKT1: 24 h
Protocol: as §1, §2, §3, §4, §5, §6, §7

[3] = test system: MAP2K4 (mitogen-activated protein kinase 4); assay: Gene expression experiment (real-time PCR) in SH-SY5Y cells: MAP2K4; settings: for expression of MAP2K4: 24 h
Protocol: as §1, §2, §3, §4, §5, §6, §7

[4] = 12.56 μM, amyloid β protein-treated cells, compared to “Aβ”
[5] = 12.56 μM, amyloid β protein-treated cells, compared to “Control”
[6] = Sample 1 alone, no amyloid β, compared to “Control”
[7] = amyloid β protein-treated cells, 12.56 μM, ranked against malvidin and malvidin-3-glucoside

Structure (SMILES): COc1cc(-c2[o+]c3cc(O)cc(OC4OC(CO)C(O)C(O)C4O)c3cc2OC2OC(CO)C(O)C(O)C2O)cc(OC)c1O (stereo not shown) [M3,5G, Malvidin-3,5-diglucoside chloride]
- expression of CASP3 (CASP3 (caspase-3); [4]): significantly low
- expression of CASP3 (CASP3 (caspase-3); [5]): significantly low
- expression of CASP3 (CASP3 (caspase-3); [6]): significantly decreased
- activity in decreasing the expression of CASP3 (CASP3 (caspase-3); [7]): highest activity
- expression of PI3KCA [1, 4]: significantly high
- expression of PI3KCA [1, 5]: significantly high
- expression of PI3KCA [1, 6]: significantly increased
- activity in increasing the expression of PI3KCA [1, 7]: highest activity
- expression of AKT1 [2, 4]: significantly high
- expression of AKT1 [2, 5]: significantly high
- expression of AKT1 [2, 6]: significantly increased
- activity in increasing the expression of AKT1 [2, 7]: highest activity
- expression of MAP2K4 [3, 4]: significantly high
- expression of MAP2K4 [3, 5]: significantly high
- expression of MAP2K4 [3, 6]: significantly increased
- activity in increasing the expression of MAP2K4 [3, 7]: highest activity

Source: patent US20220241308A1, “NEURONAL FUNCTION MODULATING AGENT” (University of Tsukuba, priority 2019, published 2022)
